Results taken from patent US20170138931A9, “METHOD FOR DIAGNOSIS OF INFLAMMATORY DISEASES USING CALGRANULIN C” (WESTFAELISCHE WILHELMS-UNIVERSITAET MUENSTER, priority 2002, published 2017).
Marks after values point to notes of the source that are not given here.

What was measured:
[1] = tested on: patients with psoriatic arthritis; test: Disease activity in patients with psoriatic arthritis after initiation of MTX treatment; type: in vivo, human
Experimental: We investigated 42 patients with chronic inflammatory arthritis. CALGRANULIN C concentrations were analysed in serum and synovial fluid using a sandwich-ELISA as described above. Serum levels were determined from 14 patients (9 male, 5 female; mean age 40 years; range 21-64) suffering from psoriasis arthritis (mean disease duration 14.6±8.6 months), who where treated with the anti-inflammatory drug MTX (mean dose 12.9±4.8 mg). No other medication apart from non-steroidal anti-inflammatory drugs (NSAIDs) were taken. Serum was obtained before and after treatment (mean follow up interval 6.4±1.3 months). In addition, paired serum and synovial fluid samples were available from 28 patients who underwent arthroscopy (8 patients with psoriatic arthritis, 9 patients with rheumatoid arthritis, 11 patients with seronegative arthritis). All patients were examined by the same physician. Clinical status of patients was documented by recording early morning stiffness, pain score, Ritchie articular index (RI) (Ritchie et al., 1968, QJ Med 37: 393-406) and number of swollen joint count (SJC). […] Patients with seronegative arthritis were in between these groups. In addition to the clinical status, CRP, ESR, anti nuclear antibodies (ANA), and rheumatoid factor (RF) were documented.
Response to therapy was paralleled by a marked decrease of CALGRANULIN C serum levels after MTX treatment (mean 240 ng/ml prior versus 100 ng/ml after MTX; cf. FIG. 8). CALGRANULIN C levels correlated well with improving EMS, pain score, RI and SJC.

JRA patients = settings: Ravelli et al., 1995; cited from earlier work
[2] = tested on: CALGRANULIN C expressed in synovial tissue; test: Immunohistochemical analysis of CALGRANULIN C in synovial tissue of psoriatic arthritis patients before and after MTX treatment; type: in vivo, human; settings: for number of CALGRANULIN C-positive cells per field in synovial membrane, mean score of 10 fields: after MTX treatment, 400-fold magnification
Experimental: To confirm local expression of CALGRANULIN C at sites of inflammation we performed immunohistochemical studies. Synovial biopsies were performed in 4 patients with psoriatic arthritis before and after MTX-therapy. In addition, biopsies were obtained from 5 patients with psoriatic arthritis not receiving MTX, 2 patients with rheumatoid arthritis, and 2 patients with seronegative arthritis. Two biopsies of patients without synovial inflammation served as negative controls. Cryo-fixed and paraffin-embedded sections were prepared as commonly known in the art. Rabbit anti-human CALGRANULIN C antibody was used to detect CALGRANULIN C expression. Mouse-anti-human CD15, a granulocyte-associated antigen, was used to detect granulocytes in infiltrates. Mouse-anti human CD163 antibody (clone RM3/1, detecting a macrophage-specific scavenger receptor) was employed to characterize macrophages in infiltrates. Species matching control antibodies of irrelevant specificity were used as negative controls. Finally the sections were counterstained with Mayer's haematoxylin. Secondary antibodies and substrates for colour reactions were used as described before. For double-labelling experiments, anti-CALGRANULIN C antibody was followed by anti-CD15 antibody. We used affinity-purified goat-anti-mouse or goat-anti-rabbit secondary antibodies conjugated with either Texas Red or FITC (Dianova, Hamburg, Germany). Fluorescence was analysed using a Zeiss Axioskop connected to an Axiocam camera supply with Axiovision 3.0 for windows (Zeiss, Göttingen, Germany). No cross-reactivity or spillover was detected in control experiments after omitting specific antibodies or replacing them by isotype-matched control antibodies of irrelevant specificity.
We analysed the effects of MTX treatment on CALGRANULIN C expression in serum of 14 patients with psoriatic arthritis and in synovial membranes of 4 patients. Before treatment, extensive expression of CALGRANULIN C was found in synovial tissue of psoriatic arthritis patients before MTX treatment (cf. FIG. 7G), as described above predominantly in the sub-lining layer and perivascular.

[3] = tested on: CALGRANULIN C serum levels; test: Serum CALGRANULIN C by sandwich ELISA in psoriatic arthritis patients treated with MTX; type: in vivo, human; settings: 14 psoriatic arthritis patients, after MTX; 240 ng/ml prior
Experimental: (§1) Concentrations of CALGRANULIN C in the serum of patients were determined by a double sandwich enzyme linked immunosorbent assay (ELISA) system. Flat-bottom 96-well microtiter plates (Maxisorp; Nunc, Roskilde, Denmark) were coated at 50 μl/well with 10 ng/well of anti-CALGRANULIN C in 0.1 M sodium carbonate buffer, pH 9.6; incubated for 16 h at 4° C.; washed three times with phosphate buffer saline and 0.1% Tween 20, pH 7.4 (wash buffer); and blocked with wash buffer containing 0.25% bovine serum albumin (block buffer) for 1 h at 37° C. Plates were washed once with wash buffer and 50 μl of samples with varying dilutions in block buffer were added for 1 h at room temperature. […] Absorbency at 405 nm was measured with ELISA-reader (MRX microplate reader, Dynatech Laboratories, St Peter Port, Guernsey, UK).
We investigated 42 patients with chronic inflammatory arthritis. CALGRANULIN C concentrations were analysed in serum and synovial fluid using a sandwich-ELISA as described above. Serum levels were determined from 14 patients (9 male, 5 female; mean age 40 years; range 21-64) suffering from psoriasis arthritis (mean disease duration 14.6±8.6 months), who where treated with the anti-inflammatory drug MTX (mean dose 12.9±4.8 mg). […]
We analysed the effects of MTX treatment on CALGRANULIN C expression in serum of 14 patients with psoriatic arthritis and in synovial membranes of 4 patients. […]

[4] = tested on: Human mixed donor neutrophils; test: CALGRANULIN C secretion by neutrophils stimulated with TNF alpha in vitro; type: cell-based
Experimental: Human mixed donor neutrophils were isolated from buffy coats (German red cross, Munster, Germany) as described before (Vogl et al., 1999, J Biol Chem 274: 25291-25296). Briefly, centrifugation through Ficoll-Hypague (Biocoll, Biochrom, Berlin, Germany) was performed to separate neutrophils from mononuclear cells and platelets. Erythrocytes were separated by dextran sedimentation. The remaining cells were washed twice in PBS. Purity of cells was above 95%, as determined by morphological analysis of Trypan-blue stained cells. Neutrophils were resuspended at a final concentration of 1×10^7 cells/ml in serum free RPMI medium (Biochrom, Berlin, Germany) supplemented with 1% glutamine, 1% non-essential amino acids, and 1% penicillin/streptomycin. […] Stimulated and non-stimulated cells were incubated for 15 or 30 minutes at 37° C., respectively. Finally, neutrophils were pelleted at 500×g for 5 minutes at 4° C. and the supernatant was saved for analyses of CALGRANULIN C with sandwich-ELISA. Cell lysis was assessed by analysing activity of lactate dehydrogenase (LDH) using its capacity to convert NADH to NAD^+ and measuring the decrease of absorbency of NADH at 340 nm. Protease inhibitors were added to prevent proteolytic degradation.

[5] = tested on: CALGRANULIN C serum levels; test: CALGRANULIN C serum levels in Crohn's disease patients treated with infliximab; type: in vivo, human; settings: 3 Crohn's disease patients; before, 2 weeks and 4 weeks after infliximab
Experimental: FIG. 11: CALGRANULIN C serum levels in patients with Crohn's disease due to infliximab treatment. Individual courses of CALGRANULIN C and CDAI in 3 patients before, 2 weeks, and 4 weeks after treatment with infliximab (a-c).
as §1, with “temperature. The ELISA was calibrated with purified CALGRANULIN C in concentrations ranging from 0.016 to 125 ng/ml.” for “temperature.”
Crohn's disease patients (n=40), ulcerative colitis patients (n=34) and healthy controls (n=30) were investigated: CALGRANULIN C protein serum levels were measured as described above using ELISA. In parallel, CRP and ESR were determined. […]

[6] = tested on: interaction of CALGRANULIN C with RAGE; settings: blocking the CALGRANULIN C-RAGE interaction; Hofmann et al. 1999, Schmidt et al. 2001; cited from earlier work
[7] = Stability of CALGRANULIN C protein; type: physicochemical; settings: at room temperature or after multiple thawing and freezing cycles

CN(Cc1cnc2nc(N)nc(N)c2n1)c1ccc(C(=O)N[C@@H](CCC(=O)O)C(=O)O)cc1 [MTX, methotrexat]
CRP ([1]; before MTX 4.2, p < 0.05): 2.5* mg/dl
Pain ([1]; before MTX 5.3, p < 0.05): 3.2* points
RI (Ritchie articular index) ([1]; before MTX 6.3, p < 0.01): 1.9** points
SJC (swollen joint count) ([1]; before MTX 9.6, p < 0.01): 3.3** No.
ESR ([1]; before MTX 28, p < 0.05): 12* mm/h
EMS (early morning stiffness) ([1]; before MTX 76, p < 0.01): 25** min
JRA patients who relapse after withdrawal of treatment (JRA patients): about 50%
number of CALGRANULIN C-positive cells per field in synovial membrane, mean score of 10 fields ([2]; Patient 1, psoriatic arthritis, before MTX 23): 3
number of CALGRANULIN C-positive cells per field in synovial membrane, mean score of 10 fields ([2]; Patient 2, psoriatic arthritis, before MTX 12): <1
number of CALGRANULIN C-positive cells per field in synovial membrane, mean score of 10 fields ([2]; Patient 3, psoriatic arthritis, before MTX 17): <1
number of CALGRANULIN C-positive cells per field in synovial membrane, mean score of 10 fields ([2]; Patient 4, psoriatic arthritis, before MTX 21): <1
CALGRANULIN C expression in synovial biopsies ([2]; psoriatic arthritis patients after effective MTX treatment, extensive expression before): almost undetectable
mean CALGRANULIN C serum level [3]: 100 ng/mL

TNF alpha
CALGRANULIN C secretion into supernatant ([4]; TNF alpha 2 or 5 ng/ml, 15 or 30 minutes at 37° C., unstimulated cells between 5 and 10 ng/ml): time- and dose-dependent increase
viability and cell lysis tested by LDH activity ([4]; stimulated vs non-stimulated neutrophils): no differences

infliximab: TNF blocking agents such as anti-TNF antibodies, e.g. infliximab
CALGRANULIN C serum levels after treatment [5]: decreased rapidly

B1: sRAGE: soluble RAGE, receptor for advanced glycation end products, used as blocking agent in mouse models (protein, UniProt Q62151 23-340, looked up)
extracellular domain: GQNITARIGEPLVLSCKGAPKKPPQQLEWKLNTGRTEAWKVLSPQGGPWDSVARILPNGSLLLPATGIVDEGTFRCRATNRRGKEVKSNYRVRVYQIPGKPEIVDPASELTASVPNKVGTCVSEGSYPAGTLSWHLDGKLLIPDGKETLVKEETRRHPETGLFTLRSELTVIPTQGGTHPTFSCSFSLGLPRRRPLNTAPIQLRVREPGPPEGIQLLVEPEGGIVAPGGTVTLTCAISAQPPPQVHWIKDGAPLPLAPSPVLLLPEVGHEDEGTYSCVATHPSHGPQESPPVSIRVTETGDEGPAEGSVGESGLGTLA
modifications: extracellular domain
effect in mouse models of inflammation including arthritis [6]: clear anti-inflammatory effects

B2: CALGRANULIN C: small protein of 92 amino acids which belongs to the family of calcium-binding S100 proteins; SEQ ID NO:2 (protein)
chain: MTKLEEHLEGIVNIFHQYSVRKGHFDTLSKGELKQLLTKELANTIKNIKDKAVIDEIFQGLDANQDEQVDFQEFISLVAIALKAAHYHTHKE
modifications: homo sapiens
stability of the protein [7]: extremely stable
